From patent US6017911A, “Pyridonecarboxylic acid derivatives and intermediates for the synthesis thereof” (Dainippon Pharmaceutical Co., Ltd., priority 1996, dated 2000)
Converted amounts (≈) assume the structure as drawn.

Key:
Format in all cases: cell-based
[1] = tested on: Staphylococcus aureus 50774; experiment: In vitro antibacterial activity (MIC), Staphylococcus aureus 50774; conditions: Staphylococcus aureus 50774; read-out: Minimum inhibitory concentration (MIC)
[2] = tested on: Staphylococcus aureus MS16405; experiment: In vitro antibacterial activity (MIC), Staphylococcus aureus MS16405; conditions: Staphylococcus aureus MS16405; read-out: Minimum inhibitory concentration (MIC)
[3] = tested on: Escherichia coli NIHJ JC-2; experiment: In vitro antibacterial activity (MIC), Escherichia coli NIHJ JC-2; conditions: NIHJJC2, read-out: Minimum inhibitory concentration (MIC)
[4] = tested on: Pseudomonas aeruginosa No 12; experiment: In vitro antibacterial activity (MIC), Pseudomonas aeruginosa No 12; conditions: NO12, read-out: Minimum inhibitory concentration (MIC)

CN[C@H]1CN(c2c(F)cc3c(=O)c(C(=O)O)cn(C4CC4)c3c2Cl)[C@@H]2CCO[C@H]12 (relative stereo) [Example 20]
MIC [1]: 0.1 µg/mL (≈ 0.237 µM) | MIC [2]: 3.13 µg/mL (≈ 7.42 µM) | MIC [3]: 0.05 µg/mL (≈ 0.119 µM) | MIC [4]: 1.56 µg/mL (≈ 3.7 µM)

Nc1c(F)c(N2C[C@@H](N)[C@H]3OCCC[C@H]32)c(F)c2c1c(=O)c(C(=O)O)cn2C1CC1 (relative stereo) [Example 21]
MIC [1]: ≤ 0.003 µg/mL | MIC [2]: 0.78 µg/mL (≈ 1.86 µM) | MIC [3]: 0.013 µg/mL (≈ 0.0309 µM) | MIC [4]: 0.39 µg/mL (≈ 0.928 µM)

N[C@H]1CN(c2nc3c(cc2F)c(=O)c(C(=O)O)cn3C2CC2)[C@@H]2CCO[C@@H]21 (relative stereo) [Example 22]
MIC [1]: 0.05 µg/mL (≈ 0.134 µM) | MIC [3]: ≤ 0.003 µg/mL | MIC [4]: 0.39 µg/mL (≈ 1.04 µM)

COc1c(N2C[C@@H](N)[C@H]3OCC[C@H]32)c(F)cc2c(=O)c(C(=O)O)cn(C3CC3)c12 (relative stereo) [Example 23]
MIC [1]: ≤ 0.003 µg/mL | MIC [2]: 0.78 µg/mL (≈ 1.93 µM) | MIC [3]: 0.025 µg/mL (≈ 0.062 µM) | MIC [4]: 0.78 µg/mL (≈ 1.93 µM)

Cc1c(F)c(N2C[C@H](N)[C@H]3OCC[C@H]32)c(C)c2c1c(=O)c(C(=O)O)cn2C1CC1 (relative stereo) [Example 24]
MIC [1]: 0.013 µg/mL (≈ 0.0324 µM) | MIC [2]: 1.56 µg/mL (≈ 3.89 µM) | MIC [3]: 0.025 µg/mL (≈ 0.0623 µM) | MIC [4]: 0.78 µg/mL (≈ 1.94 µM)

N[C@H]1CN(c2cc3c(cc2F)c(=O)c(C(=O)O)cn3C2CC2)[C@@H]2CCO[C@@H]21 (relative stereo) [Example 26]
MIC [1]: 0.05 µg/mL (≈ 0.134 µM) | MIC [3]: 0.013 µg/mL (≈ 0.0348 µM) | MIC [4]: 0.39 µg/mL (≈ 1.04 µM)

C#Cc1c(N2C[C@H](N)[C@H]3OCC[C@H]32)c(F)cc2c(=O)c(C(=O)O)cn(C3CC3)c12 (relative stereo) [Example 27]
MIC [1]: 0.025 µg/mL (≈ 0.0629 µM) | MIC [2]: 1.56 µg/mL (≈ 3.93 µM) | MIC [3]: 0.025 µg/mL (≈ 0.0629 µM) | MIC [4]: 1.56 µg/mL (≈ 3.93 µM)

N[C@@H]1CN(c2nc3c(cc2F)c(=O)c(C(=O)O)cn3-c2ccc(F)cc2F)[C@@H]2CCO[C@H]12 (relative stereo) [Example 29]
MIC [1]: 0.025 µg/mL (≈ 0.056 µM) | MIC [3]: 0.025 µg/mL (≈ 0.056 µM) | MIC [4]: 0.39 µg/mL (≈ 0.874 µM)

Cc1c(F)c(N2C[C@@H](N)[C@H]3OCCC[C@H]32)c(C#N)c2c1c(=O)c(C(=O)O)cn2C1CC1 (relative stereo) [Example 30]
MIC [1]: 0.013 µg/mL (≈ 0.0305 µM) | MIC [2]: 3.13 µg/mL (≈ 7.34 µM) | MIC [3]: 0.05 µg/mL (≈ 0.117 µM) | MIC [4]: 0.78 µg/mL (≈ 1.83 µM)

COc1c(N2C[C@@H](N)[C@H]3OCCC[C@H]32)c(F)c(N)c2c(=O)c(C(=O)O)cn(C3CC3)c12 (relative stereo) [Example 32]
MIC [1]: 0.013 µg/mL (≈ 0.0301 µM) | MIC [2]: 0.78 µg/mL (≈ 1.8 µM) | MIC [3]: 0.1 µg/mL (≈ 0.231 µM) | MIC [4]: 1.56 µg/mL (≈ 3.61 µM)

C=Cc1c(N2C[C@H](N)[C@H]3OCC[C@H]32)c(F)cc2c(=O)c(C(=O)O)cn(C3CC3)c12 (relative stereo) [Example 33]
MIC [1]: 0.025 µg/mL (≈ 0.0626 µM) | MIC [2]: 1.56 µg/mL (≈ 3.91 µM) | MIC [3]: 0.05 µg/mL (≈ 0.125 µM) | MIC [4]: 3.13 µg/mL (≈ 7.84 µM)

N#Cc1c(N2C[C@@H](N)[C@H]3OCCC[C@H]32)c(F)cc2c(=O)c(C(=O)O)cn(C3CC3)c12 (relative stereo) [Example 34]
MIC [1]: 0.05 µg/mL (≈ 0.121 µM) | MIC [2]: 6.25 µg/mL (≈ 15.2 µM) | MIC [3]: 0.05 µg/mL (≈ 0.121 µM) | MIC [4]: 1.56 µg/mL (≈ 3.78 µM)

CN[C@@H]1CN(c2c(F)cc3c(=O)c(C(=O)O)cn(C4CC4)c3c2OC)[C@@H]2CCO[C@@H]21 (relative stereo) [Example 35]
MIC [1]: 0.025 µg/mL (≈ 0.0599 µM) | MIC [2]: 6.25 µg/mL (≈ 15 µM) | MIC [3]: 0.1 µg/mL (≈ 0.24 µM) | MIC [4]: 3.13 µg/mL (≈ 7.5 µM)

N[C@@H]1CN(c2c(F)cc3c(=O)c(C(=O)O)cn(C4CC4)c3c2OC(F)F)[C@@H]2CCO[C@H]12 (relative stereo) [Example 37]
MIC [1]: 0.05 µg/mL (≈ 0.114 µM) | MIC [2]: 6.25 µg/mL (≈ 14.2 µM) | MIC [3]: 0.1 µg/mL (≈ 0.228 µM) | MIC [4]: 3.13 µg/mL (≈ 7.12 µM)

N#Cc1c(N2C[C@H](N)[C@H]3OCC[C@H]32)c(F)cc2c(=O)c(C(=O)O)cn(C3CC3)c12 (relative stereo) [Example 38]
MIC [1]: 0.1 µg/mL (≈ 0.251 µM) | MIC [3]: 0.05 µg/mL (≈ 0.126 µM) | MIC [4]: 3.13 µg/mL (≈ 7.86 µM)

Cc1c(F)c(N2C[C@H](N)[C@H]3OCC[C@H]32)nc2c1c(=O)c(C(=O)O)cn2-c1ccc(F)cc1F (relative stereo) [Example 39, 7-[(1R*,5R*,8S*)-8-amino-2-oxa-6-azabicyclo[3.3.0]oct-6-yl]-6-fluoro-1-(2,4-difluorophenyl)-1,4-dihydro-5-methyl-4-oxo-1,8-naphthyridine-3-carboxylic acid]
MIC [1]: 0.025 µg/mL (≈ 0.0543 µM) | MIC [2]: 3.13 µg/mL (≈ 6.8 µM) | MIC [3]: 0.2 µg/mL (≈ 0.434 µM) | MIC [4]: 0.78 µg/mL (≈ 1.69 µM)
